Where a name gives a salt, the structure may show the parent alone.
Experiments:
H3 receptors = target: T1, H3 receptors (Cavia porcellus, UniProt Q9JI35); experiment: Guinea pig H3 receptor binding assay; details: guinea pig brain membranes; [3H]R-α-methyl histamine or [3H]Nα-methyl histamine; range stated for a group of compounds
T1 construct: The source of the H3 receptors in this experiment was guinea pig brain; from tissue; host or cells: guinea pig brain membranes
Procedure: The source of the H3 receptors in this experiment was guinea pig brain obtained from animals weighing 400-600 g. The brain tissue was homogenized with a solution of 50 mM Tris, pH 7.5. The final concentration of tissue in the homogenization buffer was 10% w/v. The homogenates were centrifuged at 1,000×g for 10 minutes in order to remove clumps of tissue and debris. The resulting supernatants were then centrifuged at 50,000×g for 20 minutes in order to sediment the membranes, which were then washed three times in homogenization buffer (50,000×g for 20 minutes each). The membranes were frozen and stored at −70° C. until needed.
All compounds to be tested were dissolved in DMSO and then diluted into the binding buffer (50 mM Tris, pH 7.5) such that the final concentration was 2 μg/mL with 0.1% DMSO. Membranes were then added (400 μg of protein) to the reaction tubes. The reaction was started by the addition of 3 nM [^3H]R-α-methyl histamine (8.8 Ci/mmol) or 3 nM [^3H]N^α-methyl histamine (80 Ci/mmol) and continued under incubation at 30° C. for 30 minutes. Bound ligand was separated from unbound ligand by filtration, and the amount of radioactive ligand bound to the membranes was quantitated by liquid scintillation spectrometry. All incubations were performed in duplicate and the standard error was always less than 10%. Compounds that inhibited more than 70% of the specific binding of radioactive ligand to the receptor were serially diluted to determine a Ki (nM).

[1] = target: T2, human histamine H3 receptor (Homo sapiens, UniProt Q9Y5N1); experiment: Human H3 receptor binding assay; details: HEK-293 membranes expressing human H3; 1 nM [3H]N-α-methylhistamine; n=4
T2 construct: The full-length human histamine H3 receptor was cloned by PCR; expressed in transfected cells
Procedure: The full-length human histamine H3 receptor was cloned by PCR from a human thalamus cDNA library, with primers derived from a public database, and inserted into the CMV promoter-driven expression vector pcDNA-3.1 (Invitrogen). HEK-293 human embryonic kidney cells (ATCC) were transfected with H3 receptor plasmid and stably expressing cells were selected with G-418. Cells were grown in Dulbecco's modified Eagle's medium/10% fetal calf serum containing high glucose, 25 mM Hepes, penicillin (100 U/ml), streptomycin (100 ug/ml), 2 mM glutamine, and 0.5 mg G-418/ml at 37° C. in a humidified atmosphere of 5% CO2. For membrane preparations, cells were harvested using aspirating media, replacing it with 5 mM EDTA/0.02% trypsin/Hank's balanced salt solution, followed by incubation at 37° C. for 5 to 10 minutes. […] Nonspecific binding was determined in the presence of 10^-5 M thioperamide. After a 30 minute incubation at 30° C., assay mixtures were filtered through 0.3% polyethylenimine-soaked GF/B glass fiber filters, which were then rinsed thrice with buffer, dried, impregnated with Meltilex wax scintillant, and counted. IC50 values were determined from curves fit to the data using a non-linear, least-squares, curve-fitting program and Ki values were determined using the method of Cheng and Prusoff.

[2] = test system: STZ-DIO Sprague-Dawley rats (T2DM); experiment: In vivo effect on glucose and HbA1c in STZ-DIO diabetic rats; design: species or system rat; details: two weeks
Procedure: Seventy male DIO Sprague-Dawley rats were fed HFD (45% Kcal fat) for 3 months from weaning, and were given streptozotocin (STZ) intraperitoneally at 25 mg/kg to induce type 2 diabetes (T2DM). Forty four T2DM rats were chosen for the study two weeks after STZ injection (n=11 per group, with body weights between 632 and 838 g, non-fasting glucose between 226 and 426 mg/dl and HbA1c between 8.7% and 10.9%) and were given ad libitum access to pre-weighed 45% fat (kcal) HFD or Compound 287 (1.4, 2.9 mg/g in HFD) for two weeks. Body weight, non-fasting glucose and food intake were monitored daily. Body composition and HbA1c levels were monitored before and after the two-week study by the whole body magnetic resonance analyzer and Cholestech GDX analyzer (Hayward, Calif.), respectively. The STZ-DIO rats had elevated non-fasting glucose and HbA1c levels (non-fasting glucose were between 226 and 426 mg/dl; and HbA1c were between 8.7% and 10.9%) two weeks after STZ injection. The low dose of STZ caused a 48% reduction of plasma insulin levels, which was not sufficient to cause hyperglycemia in rats fed with chow diet. In contrast, this level of plasma insulin induced hyperglycemia in the face of insulin resistance induced by the HFD. […] The control STZ-DIO rats maintained non-fasting glucose levels above […] (+12 mg/dl), which led to a significant 0.96% increase in HbA1c over 14 days.

[3] = test system: STZ-induced type 2 diabetic mice; experiment: In vivo effect on glucose levels in diabetic mice (western diet + low dose STZ); design: species or system mouse; details: 10 mg/kg/day in diet, four weeks; relative to control mice and mice treated with rosiglitazone (5 mg/kg/day in diet)
Procedure: Five-week-old male ICR mice were purchased from Taconic Farm (Germantown, N.Y.) and placed on a “western diet” containing 45% (kcal) fat from lard and 0.12% (w/w) cholesterol. After 3 weeks of feeding, the mice were injected once with low dose streptozocin (STZ, ip 80 mg/kg) to induce partial insulin deficiency. […] The diabetic mice were then placed in one of three groups: (1) a non-treated control group, (2) a group treated with rosiglitazone (5 mg/kg/day in diet); or (3) a group treated with Compound 446 (10/mg/kg/day in diet). All animals were treated for four weeks.

[4] = test system: diabetic Goto-Kakizaki rats; experiment: In vivo effect on glucose levels in diabetic Goto-Kakizaki rats; design: species or system rat; details: 10 mg/kg/day in food chow, one week; untreated rats 34 mg/dl
Procedure: Adult, diabetic, Goto-Kakizaki rats (14 weeks old) were tested for non-fasting glucose levels using a glucometer. Rats with glucose levels between 130 and 370 mg/dl were randomized into treatment (N=10) and control (N=10) groups. Animals in the treatment group were administered Compound 446 in their food chow at a dose of 10 mg/kg/day. After one week of treatment, blood was collected via tail snip and the non-fasting glucose level was measured using a glucometer.

T1 sequence (Q9JI35 whole entry): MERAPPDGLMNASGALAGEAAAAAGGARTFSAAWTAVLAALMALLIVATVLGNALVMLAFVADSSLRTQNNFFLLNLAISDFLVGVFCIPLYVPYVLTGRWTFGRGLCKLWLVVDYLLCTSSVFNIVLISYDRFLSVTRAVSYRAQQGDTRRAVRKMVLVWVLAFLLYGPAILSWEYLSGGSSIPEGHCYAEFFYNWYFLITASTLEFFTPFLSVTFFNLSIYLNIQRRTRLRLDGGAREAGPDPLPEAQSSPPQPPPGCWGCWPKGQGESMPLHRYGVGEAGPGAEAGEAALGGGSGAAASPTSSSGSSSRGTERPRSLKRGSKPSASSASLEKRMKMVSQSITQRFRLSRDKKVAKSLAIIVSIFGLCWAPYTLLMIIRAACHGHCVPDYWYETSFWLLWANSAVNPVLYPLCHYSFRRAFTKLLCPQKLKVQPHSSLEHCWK
T2 sequence (Q9Y5N1 whole entry): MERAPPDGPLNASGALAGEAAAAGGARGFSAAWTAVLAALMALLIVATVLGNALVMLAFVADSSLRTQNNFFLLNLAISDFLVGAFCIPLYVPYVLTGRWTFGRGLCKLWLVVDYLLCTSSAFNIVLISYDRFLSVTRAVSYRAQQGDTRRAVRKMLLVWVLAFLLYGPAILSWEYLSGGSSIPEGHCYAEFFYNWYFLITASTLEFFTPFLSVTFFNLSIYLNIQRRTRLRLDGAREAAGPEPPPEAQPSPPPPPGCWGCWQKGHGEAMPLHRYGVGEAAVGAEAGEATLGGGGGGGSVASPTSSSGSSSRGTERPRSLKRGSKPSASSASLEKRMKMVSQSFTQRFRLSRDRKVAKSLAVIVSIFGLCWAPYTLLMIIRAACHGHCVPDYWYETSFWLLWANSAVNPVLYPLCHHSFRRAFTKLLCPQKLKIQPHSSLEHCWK

Structure (SMILES)	Ki (H3 receptors) [µM]	further results
CO/N=C(/c1ccccn1)C1CCN(C(=O)C2CCN([C@H](C)c3ccnc(N)c3)CC2)CC1 [Compound 55]	0.00083 to 0.016	
CON=C(c1ccccn1)C1CCN(C(=O)C2CCN(Cc3ccnc(N)c3)CC2)CC1 [Compound 31]	0.00083 to 0.016	
CON=C(c1ccc(Cl)cc1)C1CCN(C(=O)C2CCN(Cc3ccnc(N)c3)CC2)CC1 [Compound 280]	0.00083 to 0.016	
CO/N=C(/c1ccccn1)C1CCN(C(=O)C2CCN(Cc3ccnc(N)c3)CC2)CC1 [Compound 32]	0.00083 to 0.016	
CO/N=C(/c1ccccn1)C1CCN(C(=O)C2CCN(Cc3cnc(N)nc3)CC2)CC1 [Compound 287]		Ki [1]: 0.025 ± 0.004 µM; decrease in HbA1c level ([2]; 68 mg/kg/day, 2.9 mg/g in HFD, control 0.96% increase): 0.6%; change in non-fasting glucose ([2]; 68 mg/kg/day, 2.9 mg/g in HFD, control +12 mg/dl): -43 mg/dL; HbA1c levels over the two week study period ([2]; 1.4, 2.9 mg/g in HFD): dose-dependent reduction
CO/N=C(/c1ccccn1)C1CCN(C(=O)C2(F)CCN(Cc3ccnc(N)c3)CC2)CC1 [Compound 446]		HbA1C levels [3]: significantly reduced; non-fasting glucose levels [3]: significantly reduced; average reduction in non-fasting glucose levels [4]: 81 mg/dL
CO/N=C(/c1ccccn1)C1CCN(C(=O)C2CCN([C@@H](C)c3ccnc(N)c3)CC2)CC1 [Compound 54]	0.00083 to 0.016	
CON=C(CC1CCN(C(=O)C2CCN(Cc3ccnc(N)c3)CC2)CC1)c1ccccn1 (as salt: maleate) [Compound 117]		melting point: 160 to 163 °C

Continued, in another order:

Ki (H3 receptors) [µM]	Structure (SMILES)	further results
0.00083 to 0.016	Nc1cc(CN2CCC(C(=O)N3CCC(C(=NO)c4ccccn4)CC3)CC2)ccn1 [Compound 237]	
0.00083 to 0.016	CO/N=C(/c1ccc(Cl)cc1)C1CCN(C(=O)C2CCN(Cc3ccncc3)CC2)CC1 [Compound 273]	
0.00083 to 0.016	CO/N=C(\c1ccccn1)C1CCN(C(=O)C2CCN(Cc3ccnc(N)c3)CC2)CC1 [Compound 33]	
0.00083 to 0.016	CO/N=C(/c1ccc(Cl)cc1)C1CCN(C(=O)C2CCN(Cc3ccnc(N)c3)CC2)CC1 [Compound 225]	
0.00083 to 0.016	Nc1cc(CN2CCC(C(=O)N3CCC(C(=O)c4ccccn4)CC3)CC2)ccn1 [Compound 30]	
0.00083 to 0.016	CO/N=C(\c1ccccn1)C1CCN(C(=O)C2CCN([C@@H](C)c3ccnc(N)c3)CC2)CC1 [Compound 56]	

Source: patent US20100093692A1, “PIPERIDINYL-PIPERIDINE AND PIPERAZINYL-PIPERIDINE FOR USE IN THE TREATMENT OF DIABETES OR PAIN” (Schering Corporation Sechering-Plough Corporation, priority 2007, published 2010)
